Key:
[1] = biological target: T1, BdRDL (GABA receptor subunit RDL) (Bactrocera dorsalis, UniProt A0ABM3JZQ9); assay: two-electrode voltage clamp in Xenopus oocytes, inhibition of GABA (EC50)-induced currents; type: cell-based
T1 construct: gene LOC105225059; full-length ORF, 596 amino acids (GenBank XM_049458762), homomeric receptor expressed in Xenopus oocytes
T1 sequence (A0ABM3JZQ9 1-596): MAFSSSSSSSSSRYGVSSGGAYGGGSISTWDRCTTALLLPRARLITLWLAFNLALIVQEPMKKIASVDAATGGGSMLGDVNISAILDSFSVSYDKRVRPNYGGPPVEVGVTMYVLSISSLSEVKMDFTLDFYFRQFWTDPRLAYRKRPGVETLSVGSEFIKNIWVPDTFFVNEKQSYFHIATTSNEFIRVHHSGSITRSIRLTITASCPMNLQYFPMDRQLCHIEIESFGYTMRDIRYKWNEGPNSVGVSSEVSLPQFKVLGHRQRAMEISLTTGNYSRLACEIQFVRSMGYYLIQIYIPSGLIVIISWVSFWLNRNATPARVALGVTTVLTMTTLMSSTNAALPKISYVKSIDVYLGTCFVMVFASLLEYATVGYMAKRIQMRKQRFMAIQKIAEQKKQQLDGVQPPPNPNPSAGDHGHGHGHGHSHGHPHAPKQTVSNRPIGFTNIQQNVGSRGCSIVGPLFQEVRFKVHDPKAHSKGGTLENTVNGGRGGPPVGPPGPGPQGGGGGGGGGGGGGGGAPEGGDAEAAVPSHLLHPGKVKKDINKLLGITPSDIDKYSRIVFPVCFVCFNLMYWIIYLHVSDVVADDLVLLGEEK

[2] = biological target: T1, BdRDL (GABA receptor subunit RDL); assay: two-electrode voltage clamp in Xenopus oocytes, agonist-induced currents; type: cell-based

Row | Compound | IC50 [1] [µM] | EC50 [2] [µM]
1 | Cc1cc(C2=NOC(c3cc(Cl)cc(Cl)c3)(C(F)(F)F)C2)ccc1C(=O)NCC(=O)NCC(F)(F)F (racemic) [fluralaner] | 0.15 | 
2 | NCCCC(=O)O [GABA] |  | 240

Source: paper PMC12112586, “Inhibitory Effect of Fluralaner on GABA Receptor Subunit RDL of Bactrocera dorsalis” (Insects, 2025)
